Data: ChEMBL document CHEMBL1141038, “Identification of ortho-amino benzamides and nicotinamides as MCHr1 antagonists” (Bioorg Med Chem Lett, 2005)

Legend:
[1] = molecular target: T1, Melanin-concentrating hormone receptor 1 (Homo sapiens, UniProt Q99705); assay: Inhibitory activity towards melanin-concentrating hormone receptor 1 in IMR32 cells; assay type: cell-based, IMR-32
[2] = molecular target: T1, Melanin-concentrating hormone receptor 1; assay: Inhibitory concentration against MCH1R IMR32 cells in FLIPR-based assay; assay type: cell-based, IMR-32
[3] = Brain Cmax in DIO mice after 10 mg/kg oral dose; assay type: ADME, organism-based; parameters: dose 10 mg/kg, route oral; conditions: mouse
[4] = Brain/plasma in DIO mice after 10 mg/kg oral dose; assay type: ADME, organism-based; parameters: dose 10 mg/kg, route oral; conditions: mouse, read-out: AUC
[5] = Plasma half life in DIO mice after 10 mg/kg oral dose; assay type: ADME, organism-based; parameters: dose 10 mg/kg, route oral; conditions: mouse
[6] = Area under the curve in plasma of DIO mice after 10 mg/kg oral dose; assay type: ADME, organism-based; parameters: dose 10 mg/kg, route oral; conditions: mouse, in vivo
[7] = Area under the curve in brain of DIO mice after 10 mg/kg oral dose; assay type: ADME, organism-based; parameters: dose 10 mg/kg, route oral; conditions: mouse, in vivo
[8] = Plasma Cmax in DIO mice after 10 mg/kg oral dose; assay type: ADME, organism-based; parameters: dose 10 mg/kg, route oral; conditions: mouse
[9] = Brain half life in DIO mice after 10 mg/kg oral dose; assay type: ADME, organism-based; parameters: dose 10 mg/kg, route oral; conditions: mouse
[10] = Plasma peak concentration in DIO mice after 10 mg/kg oral dose; assay type: ADME, organism-based; parameters: dose 10 mg/kg, route oral; conditions: mouse
[11] = Plasma area under curve in DIO mice after 10 mg/kg oral dose; assay type: ADME, organism-based; parameters: dose 10 mg/kg, route oral; conditions: mouse, in vivo
[12] = Brain/plasma area under curve in DIO mice after 10 mg/kg oral dose; assay type: ADME, organism-based; parameters: dose 10 mg/kg, route oral; conditions: mouse, read-out: AUC

T1 sequence (Q99705 whole entry): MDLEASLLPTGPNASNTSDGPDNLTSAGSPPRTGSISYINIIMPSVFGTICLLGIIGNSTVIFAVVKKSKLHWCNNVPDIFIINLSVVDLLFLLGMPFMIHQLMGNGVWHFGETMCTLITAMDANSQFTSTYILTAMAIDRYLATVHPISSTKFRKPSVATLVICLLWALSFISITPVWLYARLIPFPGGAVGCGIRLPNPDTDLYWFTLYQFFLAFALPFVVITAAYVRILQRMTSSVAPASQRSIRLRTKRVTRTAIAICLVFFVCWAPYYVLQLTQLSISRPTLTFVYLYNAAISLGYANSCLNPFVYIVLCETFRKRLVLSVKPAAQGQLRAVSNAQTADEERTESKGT

SMILES	IC50 [1]	IC50 [2]	also measured
O=C(NC1CCN(Cc2ccc(Cl)cc2)CC1)c1cc(Cl)cnc1NCc1ccco1	60 nM	1220 nM	–
COc1ccc(NCc2ncc[nH]2)c(C(=O)NC2CCN(Cc3ccc4c(c3)OCO4)CC2)c1	70 nM	220 nM	–
CS(=O)(=O)Nc1ccc(Cl)cc1C(=O)NC1CCN(Cc2ccc3c(c2)OCO3)CC1	560 nM	–	–
CC(=O)c1ccc(CN2CCC(NC(=O)c3cc(Cl)ccc3NCc3c[nH]cn3)CC2)cc1	10 nM	240 nM	–
O=C(NC1CCN(Cc2ccc3ccccc3c2)CC1)c1cc(Cl)ccc1NCc1nccs1	6 nM	40 nM	–
COc1ccc(NS(C)(=O)=O)c(C(=O)NC2CCN(Cc3ccc4c(c3)OCO4)CC2)c1	260 nM	–	–
COc1ccc(CN2CCC(NC(=O)c3cc(Cl)cnc3NCC(C)C)CC2)cc1F	160 nM	–	–
COc1ccc(NCC2CC2)c(C(=O)NC2CCN(Cc3ccc4c(c3)OCO4)CC2)c1	10 nM	90 nM	–
COc1ccc(NCC2CCCCC2)c(C(=O)NC2CCN(Cc3ccc4c(c3)OCO4)CC2)c1	50 nM	1060 nM	–
COc1ccc(CNc2ncc(Cl)cc2C(=O)NC2CCN(Cc3ccccc3)CC2)cc1	10 nM	30 nM	–
COc1ccc(NCc2c[nH]cn2)c(C(=O)NC2CCN(Cc3ccc4ccccc4c3)CC2)c1	390 nM	1940 nM	–
O=C(NC1CCN(Cc2ccc(Cl)cc2)CC1)c1cc(Cl)cnc1NC1CCC1	1980 nM	–	–
COc1ccc(NS(C)(=O)=O)c(C(=O)NC2CCN(Cc3ccc(Cl)cc3)CC2)c1	160 nM	–	–
O=C(Nc1ccc(Cl)cc1C(=O)NC1CCN(Cc2ccc3c(c2)OCO3)CC1)c1ccccn1	20 nM	370 nM	–
COc1ccc(NC(=O)NC(C)C)c(C(=O)NC2CCN(Cc3ccc(Cl)cc3)CC2)c1	220 nM	–	–
CC(C)Nc1ncc(Cl)cc1C(=O)NC1CCN(Cc2ccc3c(c2)CCO3)CC1	70 nM	70 nM	–
COc1ccc(NCc2c[nH]cn2)c(C(=O)NC2CCN(Cc3ccc4c(c3)OCO4)CC2)c1	20 nM	50 nM	–
COc1ccc(NCc2cncn2C)c(C(=O)NC2CCN(Cc3ccc4c(c3)OCO4)CC2)c1	90 nM	100 nM	–
COc1ccc(NCC2CCOC2)c(C(=O)NC2CCN(Cc3ccc4c(c3)OCO4)CC2)c1 (stereo not drawn)	20 nM	40 nM	–
O=C(NC1CCN(Cc2ccc3c(c2)OCO3)CC1)c1ccccc1NCc1c[nH]cn1	410 nM	–	–
O=C(NC1CCN(Cc2ccc(Cl)cc2)CC1)c1cc(Cl)cnc1NCC1CC1	410 nM	–	–
COc1ccc(NCc2c[nH]cn2)c(C(=O)NC2CCN(Cc3ccc4ncccc4c3)CC2)c1	70 nM	100 nM	–
COc1ccc(NCc2cncnc2)c(C(=O)NC2CCN(Cc3ccc4c(c3)OCO4)CC2)c1	9 nM	70 nM	–
O=C(NC1CCN(Cc2ccc3c(c2)OCO3)CC1)c1cccc(Cl)c1	110 nM	–	–
CC(C)OCCNc1ncc(-c2ccncc2)cc1C(=O)NC1CCN(Cc2ccc3c(c2)OCO3)CC1	140 nM	–	–
COc1ccc(NCc2ccccn2)c(C(=O)NC2CCN(Cc3ccc4c(c3)OCO4)CC2)c1	20 nM	70 nM	–
O=C(NC1CCN(Cc2ccc3ncccc3c2)CC1)c1cc(Cl)ccc1NCc1nccs1	20 nM	30 nM	–

Now from value to molecule, other results behind:

IC50 [1]	IC50 [2]	SMILES	also measured
20 nM	20 nM	O=C(NC1CCN(Cc2ccc3c(c2)OCO3)CC1)c1cc(Cl)cnc1NCC1CC1	–
10 nM	20 nM	CC(C)OCCNc1ncc(Cl)cc1C(=O)NC1CCN(Cc2ccc3c(c2)OCO3)CC1	Cmax [3]: 276 ng/mL; Kp [4]: 0.84; half-life [5]: 2.3 h; AUC [6]: 677 ng·h/mL; AUC [7]: 570 ng·h/mL; Cmax [8]: 283 ng/mL; half-life [9]: 1.4 h
2010 nM	–	O=C(NC1CCN(Cc2ccc3c(c2)OCO3)CC1)c1cc(Cl)cnc1Cl	–
2 nM	16 nM	O=C(NC1CCN(Cc2ccc3c(c2)OCO3)CC1)c1cc(Cl)ccc1NCc1nccs1	Cmax [3]: 814 ng/mL; half-life [5]: 3.8 h; Cmax [10]: 2030 ng/mL; AUC [11]: 4100 ng·h/mL; Kp [12]: 0.7; half-life [9]: 7.8 h
50 nM	20 nM	O=C(NC1CCN(Cc2ccc3c(c2)OCO3)CC1)c1cc(Cl)cnc1NC[C@H]1CCCO1	–
70 nM	30 nM	O=C(NC1CCN(Cc2ccc3c(c2)OCO3)CC1)c1cc(Cl)cnc1NC1CCC1	–
190 nM	–	CC(C)OCCNc1ncc(-c2cccs2)cc1C(=O)NC1CCN(Cc2ccc3c(c2)OCO3)CC1	–
7 nM	60 nM	CC(C)OCCCNc1ncc(Cl)cc1C(=O)NC1CCN(Cc2ccc3c(c2)OCO3)CC1	–
4 nM	8 nM	O=C(NC1CCN(Cc2ccc3c(c2)OCO3)CC1)c1cc(Cl)cnc1NCc1cscn1	–
80 nM	510 nM	O=C(NC1CCN(Cc2ccc3c(c2)OCO3)CC1)c1cc(Cl)ccc1O	–
6 nM	9 nM	O=C(NC1CCN(Cc2ccc3c(c2)OCO3)CC1)c1cc(Cl)cnc1NCc1nccs1	–
9 nM	200 nM	Nc1ccc(Cl)cc1C(=O)NC1CCN(Cc2ccc3c(c2)OCO3)CC1	–
20 nM	50 nM	CC(C)CNc1ncc(Cl)cc1C(=O)NC1CCN(Cc2ccc3c(c2)OCO3)CC1	–
20 nM	70 nM	O=C(NC1CCN(Cc2ccc3c(c2)OCO3)CC1)c1cc(Cl)cnc1NCc1ncc[nH]1	–
20 nM	30 nM	CC(C)Nc1ncc(Cl)cc1C(=O)NC1CCN(Cc2ccc3c(c2)OCO3)CC1	–
9 nM	20 nM	O=C(NC1CCN(Cc2ccc3c(c2)OCO3)CC1)c1cc(Cl)cnc1NCc1cnc[nH]1	–
680 nM	–	CNc1ccc(Cl)cc1C(=O)NC1CCN(Cc2ccc3c(c2)OCO3)CC1	–
